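How tested: cells in 96-well plates exposed to compound for 48 hours at five concentrations. Here, GI50 denotes the concentration required for 50% inhibition of growth.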 Active and inactive are the calls of the source. Cut-off read from the data, not from the text of the source: active = GI50 up to about 1.1 µM and inactive = higher.
Tests used:
Experiment in all cases: NCI tumour cell line growth inhibition, 48 h
[1] = test system: TK-10
[2] = test system: CCRF-CEM
[3] = test system: UACC-62
[4] = test system: SF-268
[5] = test system: OVCAR-4
[6] = test system: SF-295
[7] = test system: KM12
[8] = test system: SK-MEL-2
[9] = test system: MDA-MB-231
[10] = test system: MCF7
[11] = test system: A549
[12] = test system: BT-549
[13] = test system: DU-145
[14] = test system: SK-MEL-28
[15] = test system: PC-3
[16] = test system: HOP-92
[17] = test system: MDA-MB-435
[18] = test system: U-251
[19] = test system: RPMI-8226
[20] = test system: HL-60

Measured: GI50

COC(=O)CSC1CC(=O)c2c(Cl)sc(Cl)c21 (stereo unspecified)
inactive: [1] > 100 µM | [2] > 100 µM | [3] > 100 µM | [4] > 100 µM | [5] > 100 µM | [6] > 100 µM | [7] > 100 µM | [8] > 100 µM | [9] > 100 µM | [10] > 100 µM | [11] > 100 µM | [12] > 100 µM | [13] > 100 µM | [14] > 100 µM | [15] > 100 µM | [16] > 100 µM | [17] > 100 µM | [18] > 100 µM

C=CCSc1nn(CC=C)cc2ncnc1-2
inactive: [1] > 100 µM | [2] > 100 µM | [3] > 100 µM | [4] > 100 µM | [6] > 100 µM | [7] > 100 µM | [8] > 100 µM | [9] > 100 µM | [19] > 100 µM | [10] > 100 µM | [11] > 100 µM | [20] > 100 µM | [12] > 100 µM | [13] > 100 µM | [14] > 100 µM | [15] > 100 µM | [17] > 100 µM | [18] > 100 µM

[N-]=[N+]=C(C(=O)N1CCCC1=O)S(=O)(=O)c1ccccc1
inactive: [1] > 100 µM | [2] 80.7 µM | [3] 70.6 µM | [4] > 100 µM | [6] > 100 µM | [7] > 100 µM | [8] 62.5 µM | [9] > 100 µM | [19] 48.3 µM | [10] 32.7 µM | [11] > 100 µM | [20] 55.1 µM | [12] > 100 µM | [13] > 100 µM | [14] 48.5 µM | [15] > 100 µM | [17] 77.8 µM | [18] > 100 µM

CN(C(=O)c1ccc(Cl)s1)C(=S)N(C)C(=O)c1ccc(Cl)s1
inactive: [1] > 10 µM | [2] > 10 µM | [3] > 10 µM | [4] > 10 µM | [5] > 10 µM | [6] > 10 µM | [7] > 10 µM | [8] > 10 µM | [9] > 10 µM | [19] > 10 µM | [10] > 10 µM | [11] > 10 µM | [20] > 10 µM | [12] > 10 µM | [13] > 10 µM | [14] > 10 µM | [15] > 10 µM | [16] > 10 µM | [18] > 10 µM

Cc1ccc(C(=O)c2[nH]c(Nc3cc(C)ccn3)c(C(=S)Nc3ccccc3)c2N)cc1
inactive: [1] > 100 µM | [2] > 100 µM | [3] > 100 µM | [4] > 100 µM | [5] > 100 µM | [6] > 100 µM | [7] > 100 µM | [8] > 100 µM | [9] > 100 µM | [10] 87.5 µM | [11] > 100 µM | [20] > 100 µM | [12] > 100 µM | [13] > 100 µM | [14] > 100 µM | [16] > 100 µM | [17] > 100 µM | [18] > 100 µM

CN(C)CCNC(=O)c1cccc(N(C)C(=O)c2ccccc2)c1[N+](=O)[O-]
inactive: [1] > 100 µM | [2] > 100 µM | [3] > 100 µM | [4] > 100 µM | [6] > 100 µM | [7] > 100 µM | [8] > 100 µM | [9] > 100 µM | [10] > 100 µM | [11] > 100 µM | [20] > 100 µM | [12] > 100 µM | [13] > 100 µM | [14] > 100 µM | [15] > 100 µM | [17] > 100 µM | [18] > 100 µM

COc1cc2nc(Nc3cccc(Br)c3)nc(Nc3cccc(Br)c3)c2cc1OC
inactive: [1] 21.5 µM | [2] 22.2 µM | [3] 18.8 µM | [4] 16.2 µM | [5] 15.7 µM | [6] 17.7 µM | [7] 18.9 µM | [8] 18.4 µM | [9] 21.8 µM | [10] 16.9 µM | [11] 17.3 µM | [12] 17 µM | [13] 18.3 µM | [14] 17.2 µM | [15] 20.4 µM | [16] 15.3 µM | [17] 19.7 µM | [18] 19.2 µM

Cc1ccc(S(=O)(=O)N(CC(O)COc2ccccc2)c2ccccc2Cl)cc1 (stereo unspecified)
inactive: [1] 14.2 µM | [2] 13.9 µM | [3] 8.61 µM | [4] 17.1 µM | [5] 12.4 µM | [6] 24.3 µM | [7] 14.6 µM | [8] 13.7 µM | [9] 14.6 µM | [19] 11.5 µM | [10] 20.5 µM | [11] 11.8 µM | [20] 24.6 µM | [12] 17.1 µM | [13] 28.8 µM | [14] 15.6 µM | [15] 15.9 µM | [17] 15.6 µM | [18] 14.4 µM

COc1ccc(-c2cc(-c3cc4cc(Br)ccc4nc3Cl)c(C#N)c(N)n2)cc1
inactive: [2] > 12.5 µM | [4] > 12.5 µM | [5] > 12.5 µM | [6] > 12.5 µM | [7] > 12.5 µM | [8] > 12.5 µM | [19] > 12.5 µM | [10] > 12.5 µM | [11] > 12.5 µM | [20] > 12.5 µM | [12] > 12.5 µM | [13] > 12.5 µM | [14] > 12.5 µM | [15] > 12.5 µM | [16] > 12.5 µM | [17] > 12.5 µM

COc1c(C)c(C/C=C(\C)CC/C=C(\C)CC/C=C(\C)CCC=C(C)C)c(OC)c(OC)c1OC
inactive: [1] > 100 µM | [2] > 100 µM | [3] > 100 µM | [4] > 100 µM | [5] > 100 µM | [6] > 100 µM | [7] > 100 µM | [8] > 100 µM | [9] > 100 µM | [10] > 100 µM | [11] > 100 µM | [12] > 100 µM | [13] > 100 µM | [15] > 100 µM | [16] > 100 µM | [17] > 100 µM | [18] > 100 µM

COc1ccc(N2C(=O)C3c4[nH]c5ccccc5c4C4CCC(C(C)(C)C)CC4C3C2=O)c(C)c1 (stereo unspecified)
inactive: [1] > 100 µM | [2] > 100 µM | [3] > 100 µM | [4] > 100 µM | [5] > 100 µM | [6] > 100 µM | [7] > 100 µM | [9] > 100 µM | [19] > 100 µM | [10] > 100 µM | [11] > 100 µM | [20] > 100 µM | [12] > 100 µM | [13] > 100 µM | [14] > 100 µM | [15] > 100 µM | [17] > 100 µM | [18] > 100 µM

— ChEMBL document CHEMBL1201862, “PubChem BioAssay data set” (2004)
